{
  "source": "ChEMBL document CHEMBL3751673",
  "about": "“Illuminating the binding interactions of galactonoamidines during the inhibition of β-galactosidase (E. coli)” (Bioorg Med Chem, 2016)",
  "data": [
    {"molecular_target": "Beta-galactosidase (Escherichia coli, UniProt Q8VNN2)", "sequence (Q8VNN2 whole entry)": "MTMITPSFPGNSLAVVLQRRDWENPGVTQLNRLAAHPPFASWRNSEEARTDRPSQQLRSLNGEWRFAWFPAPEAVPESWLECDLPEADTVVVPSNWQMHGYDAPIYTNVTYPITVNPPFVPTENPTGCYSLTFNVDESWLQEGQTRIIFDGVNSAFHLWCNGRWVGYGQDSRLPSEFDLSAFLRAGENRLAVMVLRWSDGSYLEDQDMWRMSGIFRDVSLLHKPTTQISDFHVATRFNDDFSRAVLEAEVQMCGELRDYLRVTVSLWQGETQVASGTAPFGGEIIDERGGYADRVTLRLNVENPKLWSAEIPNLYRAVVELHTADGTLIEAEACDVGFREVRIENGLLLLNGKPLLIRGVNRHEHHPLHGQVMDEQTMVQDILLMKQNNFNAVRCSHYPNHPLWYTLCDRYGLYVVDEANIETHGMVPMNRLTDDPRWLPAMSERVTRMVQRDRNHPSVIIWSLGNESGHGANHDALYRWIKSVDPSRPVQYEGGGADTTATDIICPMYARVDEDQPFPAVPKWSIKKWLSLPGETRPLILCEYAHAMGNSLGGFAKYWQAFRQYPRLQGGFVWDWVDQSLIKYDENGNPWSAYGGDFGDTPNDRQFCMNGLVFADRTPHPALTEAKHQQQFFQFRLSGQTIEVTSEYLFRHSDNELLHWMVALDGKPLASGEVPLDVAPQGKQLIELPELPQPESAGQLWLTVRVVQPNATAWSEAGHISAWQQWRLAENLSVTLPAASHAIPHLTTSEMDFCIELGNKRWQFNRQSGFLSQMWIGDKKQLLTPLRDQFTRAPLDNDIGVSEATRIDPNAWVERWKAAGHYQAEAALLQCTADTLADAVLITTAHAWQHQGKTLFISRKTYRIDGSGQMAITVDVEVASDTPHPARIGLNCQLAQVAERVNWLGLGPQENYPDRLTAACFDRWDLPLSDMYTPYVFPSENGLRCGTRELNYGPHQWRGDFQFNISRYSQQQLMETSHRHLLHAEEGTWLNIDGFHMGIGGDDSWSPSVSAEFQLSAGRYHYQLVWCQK", "test": "Competitive inhibition of Escherichia coli beta-galactosidase assessed as p-nitrophenyl-beta-D-galactopyranoside substrate hydrolysis by UV/Vis spectroscopy", "units": {"Ki": "nM"}, "values": [
      {"smiles": "CO[C@H]1C(NCc2ccc(C)cc2)=N[C@H](CO)[C@H](O)[C@@H]1O", "Ki": 42},
      {"smiles": "CO[C@@H]1[C@H](O)[C@@H](O)C(NCc2ccc(C)cc2)=N[C@@H]1CO", "Ki": 32},
      {"smiles": "Cc1ccc(C/N=C2\\N[C@H](CO)[C@H](O)[C@H](O)[C@H]2O)cc1", "Ki": 0.06},
      {"smiles": "Cc1ccc(CNC2=N[C@H](CO)[C@H](O)[C@H](O)C2)cc1", "Ki": 1.3}
    ]}
  ]
}
